According to US20040254246A1, “Treating or preventing hot flashes using prodrugs of GABA analogs” (priority 2003, published 2004):

Columns and labels:
[1] = system: hot flashes in postmenopausal women; experiment: Open label clinical study of hot flash frequency and severity, immediate release capsules; assay type: in vivo, human; details: immediate release 300 mg capsules, two capsules three times daily (1800 mg/day), oral, two weeks
Text: Twenty postmenopausal women who have been experiencing hot flashes (an average of at least 6 per day, range 6-20 per day) over the past 12 months and who have not been treated with hormone therapy (i.e., no estrogen, progestin, tamoxifen or leuprolide therapy) over the past 2 months are recruited to an open label clinical study on the effect of administration of a gabapentin prodrug on the frequency and severity of hot flash symptoms. After a two week baseline screening assessment, the prodrug 1-{[(α-isobutanoyloxyethoxy)carbonyl]aminomethyl}-1-cyclohexane acetic acid (synthesized as described by Gallop et al., International Publication No. WO 02/100347), formulated as an immediate release dosage form in 300 mg capsules, is administered in two capsules three times daily (1800 mg/day, equal to ˜900 mg gabapentin equivalents/day) for two weeks. Each patient records the frequency and severity of hot flashes in a diary following the protocol of Guttuso et al., Obstet. Gynecol. 2003, 101, 337-345. Daily hot flash frequency is calculated by totaling the number of hot flashes per week and dividing by the number of days in the week for which data is recorded. The primary outcome measure is the percentage change in hot flash frequency from baseline to the end of treatment week two. […]

[2] = Drug release from sustained release oral osmotic dosage form in artificial gastric fluid; assay type: physicochemical; details: osmotic sustained release dosage form of Section 5.2 (700 mg drug composition), one 10 mil passageway
Experimental: A sustained release oral osmotic delivery dosage form containing the gabapentin prodrug 1-{[(α-isobutanoyloxyethoxy)carbonyl]aminomethyl}-1-cyclohexane acetic acid is prepared following methods described in Ayer et al., U.S. Pat. No. 5,707,663. Accordingly, 660 grams of 1-{[α-isobutanoyloxyethoxy)carbonyl]aminomethyl}-1-cyclohexane acetic acid and 30 grams of pharmaceutical acceptable poly(ethylene oxide), 5,000,000 molecular weight, is added to the bowl of a fluid bed granulator. The microencapsulation process is computerized and atomized in cycles. The process is initiated by first fluidizing the dry drug and the polymer powder for 3 minutes and the blended granules are microencapsulated with aqueous hydroxypropylmethylcellulose solution. The polymer solution is prepared by dissolving 35 grams of hydroxypropylmethylcellulose comprising 11,200 molecular weight in 400 grams of water. […]
The osmotic displacement-push composition is then prepared as follows: first, 3.7 kg of sodium chloride and 150 grams of red ferric oxide are separately screened through an 8 mesh screen using a Quadro comil. […] The conditions monitored during the process are as follows: solution spray rate of 400 g/min (3 nozzles are used); inlet temperature 45° C.; outlet temperature 24° C. and process air flow of 1,500 ft^3/minute. […]

[3] = system: hot flashes in postmenopausal women; experiment: Open label clinical study of hot flash frequency and severity, osmotic sustained release capsules; assay type: in vivo, human; details: osmotic sustained release capsules 700 mg, two capsules twice daily (2800 mg/day), oral, two weeks
Text: Twenty postmenopausal women who have been experiencing hot flashes (an average of at least 6 per day, range 6-20 per day) over the past 12 months and who have not been treated with hormone therapy (i.e., no estrogen, progestin, tamoxifen or leuprolide therapy) over the past 2 months are recruited to an open label clinical study on the effect of administration of gabapentin prodrugs on the frequency and severity of hot flash symptoms. After a two week baseline screening assessment, the prodrug 1-{[(α-isobutanoyloxyethoxy)carbonyl]aminomethyl}-1-cyclohexane acetic acid, formulated as osmotic sustained release capsules containing 700 mg drug (preparation of the sustained release capsules is described in Section 5.2 above), is administered in two capsules twice daily (2800 mg/day, equal to ˜1400 mg gabapentin equivalents/day) for two weeks. Each patient records the frequency and severity of hot flashes in a diary following the protocol of Guttuso et al., Obstet. Gynecol 2003, 101, 337-345. Daily hot flash frequency is calculated by totaling the number of hot flashes per week and dividing by the number of days in the week for which data is recorded. The primary outcome measure is the percentage change in hot flash frequency from baseline to the end of treatment week two.

[4] = system: hot flashes in postmenopausal women; details: 59 postmenopausal women, double-blind placebo controlled trial; cited from earlier work

| SMILES | decrease in mean hot flash intensity from baseline [1] | release rate [2] | decrease in mean hot flash intensity from baseline [3] | reduction in hot flash frequency from baseline [4] |
| --- | --- | --- | --- | --- |
| CC(OC(=O)NCC1(CC(=O)O)CCCCC1)OC(=O)C(C)C (stereo not drawn) [1-{[(α-isobutanoyloxyethoxy)carbonyl]aminomethyl}-1-cyclohexane acetic acid] | more than 35% | > 20 mg/h | more than 35% | – |
| NCC1(CC(=O)O)CCCCC1 [gabapentin, 1-Aminomethyl-1-cyclohexane acetic acid] | – | – | – | substantial reduction in hot flash frequency from baseline |
